Patent publication US20090099204A1, “Amide derivative, insecticide containing the same and method for application thereof as insecticide” (Mitsui Chemicals, Inc., priority 2005, published 2009)

Tests used:
Format in all cases: in vivo
[1] = tested on: Onion Thrip (Thrips tabaci); conditions: Comparative Example 1; same conditions as Test Example 5
Method: Insecticidal Test on Onion Thrip (Thrips tabaci)
A chemical to the prescribed concentration was dispersed on onion seedlings, air-dried, and then both the seedlings and 5 adult insects of onion thrips were put into a glass test tube (diameter; 3 cm, height: 10 cm). The resulting material was lidded. 3 days thereafter, the number of surviving insects was counted and the mortality was calculated.

[2] = tested on: Common Cutworm (Spodoptera litura); assay: Insecticidal Test on Common Cutworm (Spodoptera litura); conditions: Comparative Example 1; same conditions as Test Example 1
Method: Insecticidal Test on Common Cutworm (Spodoptera litura)
(§1) A piece of cabbage leaf was immersed for 30 seconds in a liquid chemical prepared by diluting a test compound to a prescribed concentration. After air-drying, the piece was put into a 7-cm polyethylene cup and second-instar larvae of common cutworms were released thereinto. The polyethylene cups were set in an isothermal chamber thermostated at 25° C. From the release 6 days later, the dead and alive were counted. The test was carried out with two replications of 5 insects per a plot.

[3] = tested on: Diamondback Moth (Plutella xylostella); assay: Insecticidal Test on Diamondback Moth (Plutella xylostella); conditions: Comparative Example 1; same conditions as Test Example 2
Method: Insecticidal Test on Diamondback Moth (Plutella xylostella)
as §1, with “of diamondback moths” for “of common cutworms”, “the release,” for “the release”

[4] = tested on: Melon Thrip (Thrips palmi); assay: Insecticidal Test on Melon Thrip (Thrips palmi); conditions: Comparative Example 1; same conditions as Test Example 4
From the text: Insecticidal Test on Melon Thrip (Thrips palmi)
Into a plastic cup (diameter: 5 cm, height: 5 cm) was poured 1% agar gel, and the reverse side of a cucumber leaf cut with a diameter of 4.5 cm was placed upward to prepare leaf disc. A chemical to the prescribed concentration was dispersed thereon using a vertical sprayer. After air-drying, 5 adult melon thrips were released thereinto and the resulting material was lidded. 3 days thereafter, the number of surviving insects was counted and the mortality was calculated.

[5] = tested on: Western Flower Thrip (Franklinella occidentalis); assay: Insecticidal Test on Western Flower Thrip (Franklinella occidentalis); conditions: Comparative Example 1; same conditions as Test Example 3

Measured: insecticidal activity

Cc1cc(C(F)(F)F)cc(C)c1NC(=O)c1cccc(NC(=O)c2ccccc2)c1 [Compound B, N-(2,6-dimethyl-4-trifluoromethyl)phenyl 3-(benzoylamino)benzamide]
could not be confirmed: all assays above

Cc1cc(C(F)(C(F)(F)F)C(F)(F)F)ccc1NC(=O)c1cccc(NC(=O)c2ccccc2I)c1 [Compound A, N-(4-heptafluoroisopropyl-2-methyl)phenyl 3-(2-iodobenzoylamino)benzamide]
could not be confirmed: all assays above
